Results: article PMC4414144, “Plasmin releases the anti-tumor peptide from the NC1 domain of collagen XIX” (Oncotarget, 2015)
“Also recorded” adds a separate entry of the source.

Legend:
plasmin [1] = assay: P36 peptide digestion in SKMEL28 melanoma cell cultures; assay type: cell-based, human; settings: MALDI-ToF MS
Experimental: (§1) Human melanoma cell line (SKMEL28) was purchased from the American Type Culture Collection (ATCC, Manassas, VA). Cells were grown in Dulbecco's Modified Eagle's medium (DMEM) supplemented with 10% Fetal Bovine Serum (FBS), 1% penicillin and streptomycin (PenStrep®, Gibco®, France) in Nunclon® 75 cm^2 flasks (Dutscher, Brumath, France) at 37°C in a humid atmosphere (5% CO2, 95% air). Murine melanoma B16F1 cells, were a generous gift of Dr. M. Grégoire (INSERM UMRS 419, Nantes, France). They were grown in RPMI 1640 medium supplemented with 5% FBS in Nunclon 25 cm^2 flasks at 37°C in a humid atmosphere (5% CO2, 95% air). All culture media and reagents were purchased from Life Technologies (Invitrogen, Strasbourg, France).
SKMEL28 were incubated in DMEM with 20 μL plasminogen (40 μg/mL) and/or 20 μL plasmin (10 μg/mL) and/or aprotinin (10^−5 M) and P36 peptide. Samples were analyzed using HPLC and Matrix Assisted Laser Desorption Ionisation – Time of flight protocol (MALDI-ToF) as described below.
siRNA specific to human tPA (FlexiTube GeneSolution for PLAT) was purchased from Qiagen (Courtaboeuf, France). The siRNA target different regions of the tPA mRNA: 1st siRNA target sequence (5′-[…]-3′), 2nd siRNA target sequence (5′-[…]-3′), 3rd siRNA target sequence (5′-[…]-3′) and 4th siRNA target sequence (5′-[…]-3′). Exponentially growing SKMEL28 cells were transfected with siRNA pools (20 nM) using lipofectamine™ 2000. Decrease of tPA mRNA expression was assessed by RT-qPCR at 48 h after transfection. Decrease of tPA protein expression was monitored by zymography and immunocytofluorescence 72 h after siRNA transfection. Cells were subjected to plasminogen treatment for P36 peptide cleavage 24 h after transfection.

plasmin [2] = assay: Plasmin activity measurement in SKMEL28 culture, chromogenic substrate S-2251; assay type: cell-based, human; settings: SKMEL28 with plasminogen; S-2251 hydrolysis at 405 nm
Experimental: After washing with DPBS, cells were incubated in DMEM with/without 20 μL plasminogen (40 μg/mL) and/or 20 μL plasmin (10 μg/mL) and/or 20 μL plasmin chromogenic substrate (250 μg/mL). Hydrolysis of the S-2251 chromogenic substrate (Chromogenix, distributed by Hyphen Biomed, Neuville sur Oise, France) was measured at 405 nm at different time.

plasmin [3] = biological target: T1, plasmin (Homo sapiens, UniProt P00747); assay: P36 peptide digestion in vitro by plasmin (HPLC, MALDI-ToF MS); assay type: biochemical; settings: for Effect on P36 peptide plasmin digestion: 16 h, E:S 1:50, HPLC
T1 construct: purchased Merck, Darmstadt
Experimental: Lyophilized plasmin with a specific activity of 10 U/mg (Merck, Darmstadt, Allemagne) was dissolved in sterile water to a concentration of 1 mg/mL. In control sample, P36 peptide (6.79 × 10^−4 M) was incubated overnight at 37°C in a Tris-HCl buffer (150 mM NaCl, 5 mM CaCl2, 50 mM Tris-HCl, pH 7.5). […] Aliquots were analyzed by HPLC as described below.
Dose-dependent digestion of P36 peptide by plasmin was measured by incubating P36 peptide 16 h at 37°C with different plasmin concentrations. Time-dependent analysis of P36 peptide cleavage by plasmin was obtained by incubating P36 with plasmin (E:S 1:50 at 37°C) during different time. Cleavage of the peptide was monitored by HPLC using method 1.
HPLC samples (20 μL of each sample with 30 μL of 0.1% trifluoroacetic acid) were injected on a Waters Alliance 2695 HPLC system, equipped with a photodiode array 2996 PDA detector, fraction collector III (WFC III) and the Empower^TM chromatography software for data acquisition (Milford, MA, USA). The column used was a EC 250/4 Nucleosil reversed phase (5 μm particle size, 100 Å pore size, 4 × 250 mm) which was protected by a guard column CC 8/4 Nucleosil 300-5 C4 (Macherey-Nagel, Düren, Germany). The injection volume was 20 μL and detection was performed at λ = 214 nm. Eluants were 0.1% trifluoroacetic acid in water (A) and 0.1% trifluoroacetic acid in 80% acetonitrile (B). The analyses followed a linear gradient program with a flow at 0.8 mL/min. Two method conditions were used:
(§2) Solutions of matrix α–cyano-4-hydroxycinnamic acid (CHCA) was prepared as a saturated solution in ACN/water (1/1; v/v) containing 0.1% TFA (10 mg/mL). Samples were prepared at a concentration of 10 pmol/μL in water containing 0.1% TFA. Typically, 1 μL of the matrix was pipetted on the MALDI target plate. Then 1 μL of analyte was added and air-dried for MALDI-ToF MS analysis.
(§3) MS experiments were performed using micromass MALDITM–LR time-of-flight mass spectrometer (Waters MS technologies, Manchester, UK) equipped with a nitrogen UV laser (337 nm wavelength), reflectron optics, a fast dual micro-channel plate (MCP) detector and a high magnification camera system. Positive ion spectra were acquired in reflectron mode. The following voltages were applied: pulse 1940 V, MCP 2380 V, suppression 500, flight tube 12000 V, reflectron 5200 V. A time lag focusing (TLF) delay of 680 ns was used between the time of laser pulse and the application of the accelerating voltage. Samples were analyzed in reflectron acquisition mode in the mass range 550-4000 Da. Mass calibration was performed using a peptide mixture composed of Bradykinin fragment 1–5 (573.31 Da), human Angiotensin II (1046.54 Da), Neurotensin (1672.92 Da), ACTH clip (2465.20 Da), bovine Insulin ß-chain oxidized (3494.65 Da) and bovine Insulin (5730.61 Da).

tumor angiogenesis = settings: in vitro and in vivo; ref [26]; cited from earlier work
Source text: (§4) Type XIX collagen is one of the minor basement membrane-associated collagens. It was discovered in 1992, isolated from rhabdomyosarcoma cell lines and named collagen Y [16]. This discovery was completed in 1993 by Myers et al who gave it the name of RH collagen. It is a 400 kDa homotrimer, composed by the association of three α1(XIX) chains. Each chain comprises 1142 residues, including six non-collagenous domains (NC1-NC6) separated by five collagenous domains (Col1-Col5). This collagen presents high structural homology with other types of collagens IX, XII, XIV, X ...

tumor cells = settings: in vitro; ref [25]; cited from earlier work
Source text: as §4

[4] = system: experimental murine melanoma; settings: experimental murine melanoma model; ref [26]; cited from earlier work
Source text: as §4

SKMEL28 cells = assay: Scratch wound assay; assay type: cell-based, human; settings: F4 200 μg/mL, p < 0.05 vs control, five experiments
Experimental: as §1
SKMEL28 cells (5 × 10^4 per well) were seeded in 24-well plates and cultivated to confluence in DMEM supplemented with 5% FBS. The cell layer was then wounded with a sterile 100 to 1000 μL pipet tip and re-incubated in fresh culture medium in the absence or presence of F4 peptide. After 24 h, 48 h or 72 h, cells were photographed and the size of the remaining wound measured.

[5] = Intra-chain disulfide bond formation in solution; assay type: physicochemical; settings: for Time for spontaneous intra-chain disulfide bond formation (C^1123-C^1128): in solution; for Intra-chain disulfide bond formation Cys^1123-Cys^1128: in solution over the time, MALDI-ToF MS
Experimental: as §2, §3

B16F1 cells = assay: In vivo murine melanoma model, tumor growth; parameters: species or system mouse (murine B16F1 melanoma in C57Bl6 mice); settings: day 15; B16F1 cells pre-incubated 30 min with F4, s.c.; re-injected i.p. day 7 and 14; ten mice; p < 0.05 vs controls
Experimental: as §1
C57Bl6 mice (average body weight: 16–18 g) were purchased from Harlan France (Gannat, France). The in vivo experiments were conducted according to the ethical guidelines of the Centre National de la Recherche Scientifique (CNRS). In vivo melanoma model was previously described (Ramont et al., 2007). Briefly, 2.5 × 10^5 B16F1 cells, pre-incubated (30 min) with either control medium or F4 peptide, were subcutaneously injected into the left side of 10 syngenic C57BL6 mice. Treatments were re-injected intraperitoneally at day 7 and 14. Tumor size was measured regularly.

[6] = system: experimental cancer models; settings: cited from earlier work
Source text: The basement membrane is a complex structure mainly composed of laminins, nidogens, heparan sulfate proteoglycans (perlecan and/or agrin), and type IV collagen. More recently, associations between basement membrane and minor collagens such as type XVIII, XV or type XIX were reported and named basement membrane zone. These collagenous components associated with the basement membrane represent a dynamic interface between this structure and the stroma. Basement membrane has long been described as a simple architectural cell support. […] For instance, endostatin, the NC1 domain of type XVIII collagen, is released by many proteases such as MMP-3, 7, 9, 12, 13, 20 [14, 35, 36], or cathepsins B, L, S, V [37, 38, 39]. […] Tumstatin, the NC1 domain of type IV collagen is generated in vivo by MMP-9 [7]. It exerts anti-tumor and anti ...

MMP-2 = assay: P36 peptide cleavage by MMP-2; assay type: biochemical; settings: preliminary experiments, data not shown
plasmin [7] = biological target: T1, plasmin; assay: Kinetic analysis of P36 peptide cleavage by plasmin (KM, Kcat); assay type: biochemical; settings: P36 8, 16, 32, 64 nM; 1.25 nM plasmin; 30 min, 37°C; HPLC; double-reciprocal plot
Experimental: Michaelis constant (KM) and first-order rate constant of substrate peptide turnover (Kcat) were obtained by digestion of P36 peptide (8, 16, 32, 64 nM), for 30 min at 37°C in the presence of 1.25 nM plasmin. Cleavage of the peptide was monitored by HPLC. From these measurements, Kcat and KM were calculated using double-reciprocal plot of 1/[S] versus 1/v.

MMP-9 = assay: P36 peptide cleavage by MMP-9; assay type: biochemical; settings: preliminary experiments, data not shown
MT1-MMP = assay: P36 peptide cleavage by MT1-MMP; assay type: biochemical; settings: preliminary experiments, data not shown
MMP-1 = assay: P36 peptide cleavage by MMP-1; assay type: biochemical; settings: preliminary experiments, data not shown
[8] = SKMEL28, plasminogen + aprotinin (10^−5 M)
[9] = SKMEL28, plasminogen added (20 μL, 40 μg/mL)
[10] = E:S 1:50, 37°C, 0, 5, 30, 60 min, HPLC method 1

T1 sequence (P00747 97-580 partner limits assumed, species assumed): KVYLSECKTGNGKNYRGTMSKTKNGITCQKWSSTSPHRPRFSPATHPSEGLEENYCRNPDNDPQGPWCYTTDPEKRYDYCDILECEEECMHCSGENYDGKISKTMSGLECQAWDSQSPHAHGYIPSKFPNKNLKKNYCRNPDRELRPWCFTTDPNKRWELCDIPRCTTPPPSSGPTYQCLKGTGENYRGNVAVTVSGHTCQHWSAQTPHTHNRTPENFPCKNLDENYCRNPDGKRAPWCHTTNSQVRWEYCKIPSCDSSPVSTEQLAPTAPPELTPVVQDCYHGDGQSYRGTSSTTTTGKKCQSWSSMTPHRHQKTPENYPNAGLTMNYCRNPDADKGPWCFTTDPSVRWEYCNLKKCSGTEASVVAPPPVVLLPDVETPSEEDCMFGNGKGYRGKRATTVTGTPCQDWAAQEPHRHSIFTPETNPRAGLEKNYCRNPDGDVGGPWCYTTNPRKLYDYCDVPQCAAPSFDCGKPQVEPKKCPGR
T1 sequence (P00747 581-810 limits assumed, species assumed): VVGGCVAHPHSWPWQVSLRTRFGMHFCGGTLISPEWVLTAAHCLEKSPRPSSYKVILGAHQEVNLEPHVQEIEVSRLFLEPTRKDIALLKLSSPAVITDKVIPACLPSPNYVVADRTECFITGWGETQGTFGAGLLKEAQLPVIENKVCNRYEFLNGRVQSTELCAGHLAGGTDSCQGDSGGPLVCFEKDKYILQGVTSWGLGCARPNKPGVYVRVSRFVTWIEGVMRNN

Substance: aprotinin [reference compound]
- Effect of aprotinin on release of F2, F3 and F4 (plasmin [1]; [8]): abolished this release
- Inhibition of plasmin activity (plasmin [2]): completely inhibited plasmin activity
- Effect on P36 peptide plasmin digestion (plasmin [3]; aprotinin 10^−5 M, 37°C): completely abolished
- Effect on P36 peptide plasmin digestion (plasmin [3]; aprotinin 10^−6 M, 37°C): completely abolished
- Effect on P36 peptide plasmin digestion (plasmin [3]; aprotinin 10^−7 M, 37°C): not sufficient to prevent it

Substance: NPEDCLYPVSHAHQRTGGN [NC1(XIX), C-terminal NC1(XIX) domain (…), 19 amino acids]
- Tumor angiogenesis (tumor angiogenesis): inhibited tumor angiogenesis in vitro and in vivo
- Tumor cell migration and invasion (tumor cells): inhibited the migration and invasion capacities of tumor cells in vitro
- Inhibition of in vivo tumor growth [4]: strong inhibition

Substance: CNPEDCLYPVSHAHQR [F4]
- Release of fragments / cleavage of P36 in cell culture (plasmin [1]; SKMEL28, no added plasminogen): no release
- Release of fragments / cleavage of P36 in cell culture (plasmin [1]; [9]): released
- Change in wound closure (SKMEL28 cells; 24 h): −53%
- Change in wound closure (SKMEL28 cells; 48 h): −39%
- Change in wound closure (SKMEL28 cells; 72 h): −36%
- Time for spontaneous intra-chain disulfide bond formation (C^1123-C^1128) [5]: less than 1 h
- Intra-chain disulfide bond formation Cys^1123-Cys^1128 [5]: formed an intra-chain disulfide-bond
- Change in tumor growth (tumor volume) (B16F1 cells): −30%

Substance: SPGAPGPQGPPGPSGR [F2, … Col1 domain of P36 peptide]
- Release of fragments / cleavage of P36 in cell culture (plasmin [1]; SKMEL28, no added plasminogen): no release
- Release of fragments / cleavage of P36 in cell culture (plasmin [1]; [9]): released

Substance: endostatin
- Anti-tumor properties ([6]; number of experimental cancer models, ref [7], [43]): exerts significant anti-tumor properties
- Metastatic potential of cells ([6]; ref [38]): reduces metastatic potential of cells

Substance: (SPGAPGPQGPPGPSGRC) and the totality of the C-terminal NC1(XIX) domain (NPEDCLYPVSHAHQRTGGN) [P36, synthetic peptide composed of the last 36 residues of the human α1(XIX) chain]
- Cleavage of P36 by MMP-2 (MMP-2): Neither MMP-1, MMP-2, MMP-9 nor MT1-MMP were capable to cleave the P36 peptide
- Release of fragments / cleavage of P36 in cell culture (plasmin [1]; SKMEL28, no added plasminogen): no cleavage of P36 peptide occurred
- Cleavage of P36 in cell culture in presence of aprotinin (plasmin [1]; [8]): no cleavage of P36 occurred
- Release of fragments / cleavage of P36 in cell culture (plasmin [1]; [9]): P36 peptide disappeared
- Kcat (plasmin [7]): 0.077 s⁻¹
- Cleavage of P36 by MMP-9 (MMP-9): Neither MMP-1, MMP-2, MMP-9 nor MT1-MMP were capable to cleave the P36 peptide
- Cleavage of P36 by MT1-MMP (MT1-MMP): Neither MMP-1, MMP-2, MMP-9 nor MT1-MMP were capable to cleave the P36 peptide
- Time for spontaneous intra-chain disulfide bond formation (C^1123-C^1128) [5]: less than 1 h
- Intra-chain disulfide bond formation Cys^1123-Cys^1128 [5]: formed an intra-chain disulfide-bond
- Dependence of digestion on time (plasmin [3]; [10]): time-dependent
- Time at which P36 peptide was cleaved by plasmin (plasmin [3]; [10]): ≤ 5 min
- Plasmin cleavage site (plasmin [3]; E:S 1:50, 16 h, 37°C, Tris-HCl pH 7.5, MALDI-ToF MS): Arg1138-Thr1139; also recorded: Arg1122-Cys1123
- Dependence of digestion on plasmin dose (plasmin [3]; plasmin 1:50 to 1:400, overnight/16 h, 37°C, HPLC method 1): dose-dependent
- Cleavage of P36 by MMP-1 (MMP-1): Neither MMP-1, MMP-2, MMP-9 nor MT1-MMP were capable to cleave the P36 peptide
